In ChEMBL document CHEMBL1201862, “PubChem BioAssay data set” (2004):
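Test compounds were applied to cells in 96-well plates for 48 hours at 5 doses. GI50: concentration for 50% inhibition of growth.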 Active and inactive are the calls of the source. No stated cut-off is given here; in the data, active = GI50 up to about 1.1 µM and inactive = higher.

Columns and labels:
Assay in all cases: NCI-60 cell line screen, 48 h
[1] = system: SNB-19
[2] = system: HOP-92
[3] = system: A549
[4] = system: KM12
[5] = system: HT-29
[6] = system: SF-268
[7] = system: 786-0
[8] = system: SK-MEL-5
[9] = system: SR
[10] = system: DU-145
[11] = system: OVCAR-4
[12] = system: SW-620
[13] = system: EKVX
[14] = system: SK-MEL-28
[15] = system: HCC 2998
[16] = system: UACC-62
[17] = system: HCT-116
[18] = system: HOP-62
[19] = system: SF-295
[20] = system: HCT-15
[21] = system: UO-31
[22] = system: IGROV-1
[23] = system: MDA-MB-231
[24] = system: SNB-75
[25] = system: SK-MEL-2
[26] = system: U-251
[27] = system: OVCAR-5
[28] = system: ACHN
[29] = system: A498
[30] = system: SF-539
[31] = system: HL-60
[32] = system: LOX IMVI
[33] = system: Hs-578T
[34] = system: MOLT-4
[35] = system: CAKI-1
[36] = system: UACC-257
[37] = system: M14
[38] = system: T47D
[39] = system: BT-549
[40] = system: NCI-H460
[41] = system: NCI/ADR-RES
[42] = system: CCRF-CEM
[43] = system: MDA-MB-435
[44] = system: NCI-H23
[45] = system: TK-10
[46] = system: RXF 393
[47] = system: PC-3
[48] = system: NCI-H226
[49] = system: MCF7
[50] = system: MDA-N
[51] = system: NCI-H522
[52] = system: SN12C
[53] = system: RPMI-8226
[54] = system: COLO 205
[55] = system: OVCAR-3
[56] = system: Malme-3M
[57] = system: OVCAR-8
[58] = system: K562

Compound: COC(=O)C12C3C4C1C1C2C3C41C(=O)NC(C)(C)CC(=O)O (stereo not drawn)
- GI50 [1]: > 100 µM (inactive)
- GI50 [2]: > 100 µM (inactive)
- GI50 [3]: > 100 µM (inactive)
- GI50 [4]: > 100 µM (inactive)
- GI50 [5]: > 100 µM (inactive)
- GI50 [6]: > 100 µM (inactive)
- GI50 [7]: > 100 µM (inactive)
- GI50 [8]: > 100 µM (inactive)
- GI50 [9]: > 100 µM (inactive)
- GI50 [10]: > 100 µM (inactive)
- GI50 [11]: > 100 µM (inactive)
- GI50 [12]: > 100 µM (inactive)
- GI50 [13]: > 100 µM (inactive)
- GI50 [14]: > 100 µM (inactive)
- GI50 [15]: > 100 µM (inactive)
- GI50 [16]: > 100 µM (inactive)
- GI50 [17]: > 100 µM (inactive)
- GI50 [18]: > 100 µM (inactive)
- GI50 [19]: > 100 µM (inactive)
- GI50 [20]: > 100 µM
- GI50 [21]: > 100 µM (inactive)
- GI50 [22]: > 100 µM (inactive)
- GI50 [23]: > 100 µM (inactive)
- GI50 [24]: > 100 µM (inactive)
- GI50 [25]: > 100 µM (inactive)
- GI50 [26]: > 100 µM (inactive)
- GI50 [27]: > 100 µM (inactive)
- GI50 [28]: > 100 µM (inactive)
- GI50 [29]: > 100 µM (inactive)
- GI50 [30]: > 100 µM (inactive)
- GI50 [31]: > 100 µM (inactive)
- GI50 [32]: > 100 µM (inactive)
- GI50 [33]: > 100 µM (inactive)
- GI50 [34]: > 100 µM (inactive)
- GI50 [35]: > 100 µM (inactive)
- GI50 [36]: > 100 µM (inactive)
- GI50 [37]: > 100 µM (inactive)
- GI50 [38]: > 100 µM (inactive)
- GI50 [39]: > 100 µM (inactive)
- GI50 [40]: 20.7 µM (inactive)
- GI50 [41]: > 100 µM (inactive)
- GI50 [42]: > 100 µM (inactive)
- GI50 [43]: > 100 µM (inactive)
- GI50 [44]: > 100 µM (inactive)
- GI50 [45]: > 100 µM (inactive)
- GI50 [46]: > 100 µM (inactive)
- GI50 [47]: > 100 µM (inactive)
- GI50 [48]: > 100 µM (inactive)
- GI50 [49]: > 100 µM (inactive)
- GI50 [50]: > 100 µM (inactive)
- GI50 [51]: > 100 µM (inactive)
- GI50 [52]: > 100 µM (inactive)
- GI50 [53]: > 100 µM (inactive)
- GI50 [54]: > 100 µM (inactive)
- GI50 [55]: > 100 µM (inactive)
- GI50 [56]: > 100 µM (inactive)
- GI50 [57]: > 100 µM (inactive)

Compound: CC(=O)Oc1ccn2nc(C)c(Br)c2c1Br
- GI50 [1]: 49.9 µM (inactive)
- GI50 [2]: 19.4 µM (inactive)
- GI50 [3]: 23.1 µM (inactive)
- GI50 [4]: 33.7 µM (inactive)
- GI50 [5]: 20.7 µM (inactive)
- GI50 [6]: 25.5 µM (inactive)
- GI50 [7]: 36.5 µM (inactive)
- GI50 [8]: 17.5 µM (inactive)
- GI50 [9]: 40.9 µM (inactive)
- GI50 [10]: 59.4 µM (inactive)
- GI50 [11]: 16.8 µM (inactive)
- GI50 [12]: 30.5 µM (inactive)
- GI50 [13]: 29 µM (inactive)
- GI50 [14]: 21.4 µM (inactive)
- GI50 [15]: 20.7 µM (inactive)
- GI50 [16]: 17.7 µM (inactive)
- GI50 [17]: 23 µM (inactive)
- GI50 [18]: 44.4 µM (inactive)
- GI50 [19]: 30.5 µM (inactive)
- GI50 [20]: 16.9 µM
- GI50 [21]: 4.6 µM (inactive)
- GI50 [22]: 32.5 µM (inactive)
- GI50 [23]: 23 µM (inactive)
- GI50 [24]: 22.1 µM (inactive)
- GI50 [25]: 27.5 µM (inactive)
- GI50 [26]: 35.1 µM (inactive)
- GI50 [28]: 17.6 µM (inactive)
- GI50 [29]: 25.1 µM (inactive)
- GI50 [30]: 21.2 µM (inactive)
- GI50 [31]: 29 µM (inactive)
- GI50 [32]: 18.4 µM (inactive)
- GI50 [33]: 29.6 µM (inactive)
- GI50 [34]: 15.3 µM (inactive)
- GI50 [35]: 2.88 µM (inactive)
- GI50 [36]: 16.7 µM (inactive)
- GI50 [37]: 18.9 µM (inactive)
- GI50 [38]: 29.3 µM (inactive)
- GI50 [39]: 26 µM (inactive)
- GI50 [58]: 24.5 µM (inactive)
- GI50 [40]: 21.5 µM (inactive)
- GI50 [41]: 47.6 µM (inactive)
- GI50 [42]: 21.6 µM (inactive)
- GI50 [43]: 17.9 µM (inactive)
- GI50 [44]: 18.3 µM (inactive)
- GI50 [45]: 45 µM (inactive)
- GI50 [46]: > 10 µM (inactive)
- GI50 [47]: 18.4 µM (inactive)
- GI50 [48]: > 43.9 µM (inactive)
- GI50 [49]: 17.8 µM (inactive)
- GI50 [50]: 17.6 µM (inactive)
- GI50 [51]: 17.6 µM (inactive)
- GI50 [52]: 27.7 µM (inactive)
- GI50 [54]: 19.4 µM (inactive)
- GI50 [55]: 17.6 µM (inactive)
- GI50 [56]: 22.4 µM (inactive)
- GI50 [57]: 29.4 µM (inactive)
